Test results published in patent publication US9095541B2, “Brain tumor targeting peptides and methods” (Arch Cancer Therapeutics, Inc., priority 2009, dated 2015).
“Also recorded” adds a separate entry of the source. One block for each substance: values may come before it.

Columns and labels:
U87R cells = experiment: Subtractive/selective biopanning of Ph.D.-12 phage display library against U87R cells, sequencing of subclones; set-up: species or system human; settings: given as n/100
Method: The present inventors have earlier described an in vivo selection for a population of human glioma cells that were highly invasive (U87R). In order to isolate peptides that could bind specifically to these highly invasive glioma cells, a biopanning experiment using a combinatorial phage display library was employed. Initially subtractive biopanning was performed with the U87 cells that were non-invasive (U87T) followed by selective biopanning with the U87R cells to isolate a library of phage (FIG. 1A) that were confirmed to preferentially interact with U87R cells by whole-cell ELISA (FIG. 1B).
Biopanning was performed as described in [61]. Subtraction cells (e.g. U87T) were released from tissue culture plastic with Puck's EDTA, and after washing with PBS, 1×10^7 cells were resuspended in 1% BSA in PBS with 1.5×10^11 pfu of Ph.D.-12 M13 Phage Library (New England Biolabs). The cells and phage were incubated in an eppendorf tube for 1 hour at room temperature with gentle shaking, before pelleting the cells and retaining the supernatant, which was transferred to a fresh tube with another aliquot of subtraction cells. The incubation and transfer of supernatant was performed three times, with the supernatant being transferred to an empty tube on the last round. Selection cells were released from tissue culture plastic with Puck's EDTA (e.g. U87R cells) and washed in PBS. 5×10^6 cells were resuspended in the 3× subtracted supernatant and incubated for 4 hours at 4° C. with slow shaking. The cell pellet was washed 5× in cold 1% BSA/0.1% Tween 20 in PBS five times, changing the tube after each wash. Bound phage were eluted by rocking the cells gently for 10 minutes at 4° C. in 1 mL of 0.2M Glycine-HCl pH 2.2 with 1 mg/mL BSA, and the supernatant was immediately neutralized with 150 μL of 1M Tris-HCl pH 9.1. The final library was amplified as per manufacturer's protocol.

[1] = test system: BTIC isolates (BTIC 12, 25, 42, 50); experiment: Biopanning of phage display library against a mixture of BTIC isolates, sequencing of subclones; settings: BTIC-binding phage subclones; given as n/50 subclones screened
[2] = test system: implanted GBM tumor from the BT025 cell line; experiment: In vivo targeting of fluorescent peptide to implanted BT025 tumor, fluorescence microscopy of brain sections; set-up: species or system mice; settings: for distribution of fluorescent peptide signal in brain sections: BT025 tumor; for localization of peptide conjugate in human GBM tissue in vivo (summary): intravenous administration, BT025 tumor (general statements also cover U87MG tumors)
Method: (§1) In the studies shown in FIGS. 13A and 13B, brain tumors were implanted in mice with a patient-derived BTIC cell line BT025 identified as above by its binding to the 7A peptide. After tumor growth from the implanted cells, the tumors were removed, sectioned and stained for microscopic visualization. In the studies shown in FIGS. 14-19, a fluorescent peptide was administered intravenously, either by intracorotid injection or via tail vein into mice having an implanted GBM tumor from the BT025 cell line (FIGS. 14-17) or the U87MG cell line (FIGS. 18 and 19), and after localization of the peptide, the animal were sacrificed and their brain tumors removed for sectioning and visualization by fluorescence microscopy.
The peptide was administered to the mouse via intracarotid injection and allowed to circulate for approximately half an hour to allow clearance of background signal before the mouse was sacrificed and the brain removed for imaging using an Olympus OV100 whole mouse imaging system. By non-magnified inspection, the large outgrowth of the tumor is obvious.
FIGS. 14B and 14C are lower and higher magnification photomicrographs of a thin section taken from the brain in FIG. 14A after it was bisected close to the tumor implantation site and stained for human nuclear antigen (green) and total DNA (blue) to outline the positioning of the cells. The red peptide signal is visible on cells immediately adjacent to the main tumor mass as well as spread diffusely in the surrounding tissue.

normal stem cells (NSC) = experiment: Staining with biotin-labeled synthetic peptide, confocal, normal stem cells; type: binding; settings: not tumorigenic cells
Method: (§2) Binding specificity of the 7A peptide was assessed with non-target (U87MG; NSC) and target (BTIC) cells using a biotinylated 7A peptide (red) followed by confocal imaging.
(§3) To confirm the preferential binding of 7A to the BTICs rather than the cells used for subtraction, neurospheres and U87MG cells were stained in suspension with biotin-labeled synthetic peptide. […] Examination of the interaction of all selected peptides across a panel of BTIC lines underscored the heterogeneity within each cell population, and established a platform for correlating the ability to bind particular peptide sequences with either cell behavior or patient outcome.
Suspended neurospheres: 50 μL of densely suspended neurospheres were stained as described above, except in suspension in an eppendorf tube. The stained neurospheres were mounted in a drop of DAKO mounting media under a coverslip.

U87MG cells = experiment: Staining with biotin-labeled synthetic peptide, confocal, U87MG; type: binding, human
Method: as §2, §3
(§4) Adherent cells: 13 mm coverslips were coated with neutralized 3 mg/mL Collagen I (PureCol), allowed to dry, then plated with test cells at 1×10^4/mL, 0.5 mL volume and allowed to equilibrate 20 minutes under normal culture conditions. Coverslips were fixed for 10 minutes in 3% formaldehyde in PBS, washed, then incubated in biotinylated peptide (3 mM stock) or primary antibody at a 1:100 dilution in 2% BSA/0.02% Tween 20 in PBS for 1 hour at room temperature. After washing in PBS, secondary antibody or streptavidin-Alexa 568 was applied at a dilution of 1:250 for 1 hour before coverslips were washed and mounted with DAKO mounting media with antifade. […]

[3] = test system: U251N human glioblastoma line xenografts; experiment: In vivo phage homing, U251N xenografts; set-up: species or system SCID mice; settings: phage perfused, anti-phage immunohistochemistry
Method: (§5) Cells were injected into the right brain hemisphere of SCID mice and allowed to establish for three months. Mice were then perfused with 7A or A1 (random control) phage for 10 minutes. […] 7A homing was not observed in mice bearing tumors generated from the U251N cell line.
(§6) 3×10^4 U87T cells, 3×10^5 U87R cells or 5×10^4 BTICs were injected in a 3 μL volume into one brain hemisphere of a SCID mouse and allowed to grow for 4, 6 or 12 weeks respectively. The mice were anaesthetized, then treated with 150 μL of 20% (w/v) mannitol for 15 minutes before injecting 5×10^9 pfu into the brain via the carotid. After allowing the phage to circulate for 10 minutes, unbound phage were flushed out of the circulatory system with 15 mL of PBS injected into the left ventricle after the right atrium was clipped. The brains were harvested, immediately frozen on dry ice and embedded in OCT for sectioning.
(§7) Serial sections were fixed with cold acetone, and rehydrated through an ethanol gradient. Endogenous peroxidases in the sections were inactivated with 0.075% H2O2/methanol, and nonspecific binding was blocked with 10% normal goat serum in PBS. […] Avidin-biotin peroxidase complexes were then formed using the VECTASTAIN Elite ABC kit (Vector Laboratories) and detected by addition of […] […]

[4] = test system: BTIC lines (neurospheres); experiment: Staining with biotin-labeled synthetic peptide, confocal, BTIC neurospheres; type: binding, human; settings: neurospheres stained in suspension
Method: as §2, §3, §4

[5] = test system: BTIC 12 and BTIC 25 xenografts; experiment: In vivo phage homing, BTIC xenografts, anti-phage immunohistochemistry; set-up: species or system SCID mice; settings: phage perfused 10 minutes
Method: as §5, §6, §7

U87R (HIGC) cells = experiment: Peptide binding to U87R cells; set-up: species or system human
[6] = test system: implanted GBM tumor from the U87MG cell line; experiment: In vivo targeting of fluorescent peptide to implanted U87MG tumor, fluorescence microscopy of brain sections; set-up: species or system mice
Method: as §1
FIGS. 18A and 18B-18D show similar views, where the animal was injected with a fluorescently labeled modified H10 peptide (SEQ ID NO: 17, preferential for HIGC binding), in animals carrying a tumor initiated with the U87MG human glioblastoma cell line. For these studies, the tumors were not grown as large, and a far-red fluorescent signal is not obvious from inspection without sectioning (FIG. 18A).
FIGS. 19A and 19B and 19D show similar views, where the animal was injected with a fluorescently labeled modified E10 peptide (SEQ ID NO: 13, which binds to both BTIC's and HIGC's), in animals carrying a tumor initiated with the U87MG human glioblastoma cell line. […]

U87T (main tumor) cells = experiment: Peptide binding to U87T cells; set-up: species or system human
[7] = test system: U87MG cells transfected with p75^NTR; experiment: Transwell migration assay, p75NTR-transfected U87MG; type: cell-based, human; settings: in vitro invasion assay
Method: The membranes of 8 μm pore sized transwell inserts (Corning Costar) were coated with brain-like matrix (720 μL of 3 mg/mL collagen I (PureCol); 180 μL of 10×DMEM (Invitrogen); 9 uL of 1 mg/mL human plasma fibronectin (Sigma); 9 uL of 1 mg/mL chondroitin sulfate proteoglycans (Chemicon); 16 μL of 0.15 mg/mL laminin (Chemicon)) on both sides, allowed to dry, then plated with 5×10^4 cells in 100 μL media in the upper chamber and 500 μL media in the lower chamber. Inclusion of collagen was essential to see the inhibitory effect of H10 (FIG. S4). 3×10^10 pfu of test phage were added to the upper chambers containing the cells, which were incubated for 4 hours under normal culture conditions. At the end of the incubation, the media was aspirated and the cells were fixed and stained in 1% crystal violet in 95% ethanol for one minute. Transwells were rinsed in PBS, then cells on the upper membrane surfaces were removed with a cotton swab. Cells which had migrated to the undersurface of the membranes were counted by light microscopy, and the sum of cells in five microscopic fields was recorded for each membrane.

Substance: CIQLANPPRLXG [M23]
number cell-binding phages containing that sequence (U87R cells): 2/100

Substance: EHMALTYPFRPP (synthetic HIGC targeting peptide) [C12]
number cell-binding phages containing that sequence (U87R cells): 13/100

Substance: GISLSSYLQSTQ (synthetic HIGC targeting peptide) [M32]
number cell-binding phages containing that sequence (U87R cells): 20/100

Substance: GMSLSRQMLWSL (synthetic HIGC targeting peptide) [F2]
number cell-binding phages containing that sequence (U87R cells): 2/100

Substance: HLFPQSNYGGHS (synthetic HIGC targeting peptide) [M24]
number cell-binding phages containing that sequence (U87R cells): 2/100

Substance: HWAPSMYDYVSW (synthetic HIGC targeting peptide) [M5]
number cell-binding phages containing that sequence (U87R cells): 7/100

Substance: IRSIRMRRILIL (synthetic BTIC targeting peptide) [C1]
number of phage subclones containing that sequence [1]: 2/50

Substance: KTSMRPLILIHI (synthetic BTIC targeting peptide) [3B]
distribution of fluorescent peptide signal in brain sections ([2]; intracarotid injection): binds to cells that are both within and outside the main tumor mass | localization of peptide conjugate in human GBM tissue in vivo (summary) [2]: can localize in human GBM tissue in vivo | number of phage subclones containing that sequence [1]: 2/50

Substance: PSPHRQRQHILR (synthetic BTIC targeting peptide) [7A]
distribution of fluorescent peptide signal in brain sections ([2]; intracarotid injection): binds primarily to cells that are diffusely spread outside the main tumor mass | fluorescent signal in whole brain imaging of tumor ([2]; intracarotid injection, approximately half an hour circulation, Olympus OV100): appears strongly in part of the tumor, but clearly does not detect all tumor cells present | localization of peptide conjugate in human GBM tissue in vivo (summary) [2]: can localize in human GBM tissue in vivo | binding of peptide to normal stem cells (normal stem cells (NSC)): predominantly negative | binding of peptide to U87MG cells (U87MG cells): predominantly negative | in vivo phage staining of U251N xenografts [3]: no staining was detected | binding of peptide to BTICs [4]: high percentage of positive cells within the neurosphere | number of phage subclones containing that sequence [1]: 25/50 | in vivo phage staining of BTIC xenografts [5]: only a subset of cells within the main tumor masses of BTIC 12 and 25 showed positive staining

Substance: QTIRIIIRRSRT (synthetic BTIC targeting peptide) [10C]
number of phage subclones containing that sequence [1]: 6/50

Substance: RTVPDYTAHVRT (synthetic HIGC targeting peptide) [M43]
number cell-binding phages containing that sequence (U87R cells): 5/100

Substance: SGHQLLLNKMPN (synthetic HIGC targeting peptide) [M19]
number cell-binding phages containing that sequence (U87R cells): 4/100

binding of peptide to BTICs [4]: binds
Substance: SLHMRHKRKPRR (synthetic BTIC targeting peptide) [E10]
binding to U87R (HIGC) cells (U87R (HIGC) cells): bind | binding of peptide to U87MG cells (U87MG cells): binds | distribution of fluorescent peptide signal in brain sections ([6]; intracarotid injection): binds to a portion of cells within the main tumor mass; also recorded: also binds to cells outside of the main tumor mass | localization of peptide conjugate in human GBM tissue in vivo (summary) ([6]; intravenous administration): can localize in human GBM tissue in vivo | binding to U87T (main tumor) cells (U87T (main tumor) cells): bind | number of phage subclones containing that sequence [1]: 4/50

Substance: SSRSMQRTLIIS (synthetic BTIC targeting peptide) [3F]
distribution of fluorescent peptide signal in brain sections ([2]; intracarotid injection): most of the red signal appears outside of the main tumor mass | localization of peptide conjugate in human GBM tissue in vivo (summary) [2]: can localize in human GBM tissue in vivo | number of phage subclones containing that sequence [1]: 2/50

Substance: SVSVGMKPSPRP (synthetic HIGC targeting peptide) [A2]
number cell-binding phages containing that sequence (U87R cells): 21/100

Substance: methyl-β-cyclodextran
cell migration of U87p75 glioma cells [7]: significantly inhibited cell migration
